# From patent publication US7892789B2, “Method of increasing cell permeability to trehalose by recombinantly producing a trehalose transporter” (priority 2007, dated 2011)
# Experiments:
# DmTRET1 = target: T1, DmTRET1 (Drosophila melanogaster, UniProt A1Z8N1); experiment: Trehalose uptake in Xenopus oocytes expressing DmTRET1; format: cell-based; settings: 105 mM of trehalose, 3 h
# T1 construct: ORF of either Tret1, DmTret1, AmTret1, AgTret1 or BmTret1 cDNA was amplified with PCR; expressed in transfected cells; host or cells: Xenopus laevis oocytes injected with cRNA
# T1 sequence (A1Z8N1 352-857): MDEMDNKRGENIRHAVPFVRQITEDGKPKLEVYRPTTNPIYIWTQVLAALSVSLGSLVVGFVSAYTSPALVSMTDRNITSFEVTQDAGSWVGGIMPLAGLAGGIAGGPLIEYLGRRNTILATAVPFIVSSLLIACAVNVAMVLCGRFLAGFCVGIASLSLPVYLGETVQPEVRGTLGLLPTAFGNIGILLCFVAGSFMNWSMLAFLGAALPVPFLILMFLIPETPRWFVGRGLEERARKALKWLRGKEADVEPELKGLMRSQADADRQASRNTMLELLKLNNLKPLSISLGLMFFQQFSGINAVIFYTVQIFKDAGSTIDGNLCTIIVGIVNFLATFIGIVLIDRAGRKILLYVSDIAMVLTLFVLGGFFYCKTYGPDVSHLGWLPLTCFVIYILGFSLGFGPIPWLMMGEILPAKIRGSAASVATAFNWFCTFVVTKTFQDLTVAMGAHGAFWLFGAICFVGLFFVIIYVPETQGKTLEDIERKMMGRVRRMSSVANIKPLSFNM
# From the text: (§1) The capped RNA (cRNA) expression vector pTRET1-XbG-ev1 series was constructed as follows: ORF of either Tret1, DmTret1, AmTret1, AgTret1 or BmTret1 cDNA was amplified with PCR using specific primers containing Bgl II site at the 5′-end on each primer, respectively. The PCR products were digested with the restriction enzymes, and cloned into the site of Bgl II in pXbG-ev1 (Preston, G. M., et al. (1992) Science 256, 385-387). ORF of hGLUT1 cDNA was obtained by digestion of pSPMM1 with BamH I, and then subcloned into the site of Bgl II in pXbG-2. Template DNAs for cRNA synthesis were amplified from the corresponding cRNA expression vectors with a high fidelity DNA polymerase, KOD—Plus—, (TOYOBO). The cRNAs were synthesized with mMESSAGE mMACHINE T7 Kit (Ambion), and then purified with RNeasy MiniElute Cleanup kit (Qiagen).
# (§2) All uptake assays for zero-trans trehalose and/or other sugars were performed using Xenopus oocytes expressing TRET1 at 15° C. in MBS containing appropriate concentrations of sugars. Sugar concentrations were determined using HPLC (Watanabe, M., et al. (2002) J Exp Biol 205, 2799-2802). All assays were carried out in triplicate. […] (data not shown).
# (§3) Likewise, whether these Tret1-orthologs have trehalose transport activity was examined using the Xenopus oocyte expression system incubated in 105 mM of trehalose for 3 h.
# AgTRET1 = target: T2, AgTRET1 (Anopheles gambiae, UniProt Q7PIR5); experiment: Trehalose uptake in Xenopus oocytes expressing AgTRET1; format: cell-based; settings: 105 mM of trehalose, 3 h
# T2 construct: ORF of either Tret1, DmTret1, AmTret1, AgTret1 or BmTret1 cDNA was amplified with PCR; expressed in transfected cells; host or cells: Xenopus laevis oocytes injected with cRNA
# T2 sequence (Q7PIR5 290-793): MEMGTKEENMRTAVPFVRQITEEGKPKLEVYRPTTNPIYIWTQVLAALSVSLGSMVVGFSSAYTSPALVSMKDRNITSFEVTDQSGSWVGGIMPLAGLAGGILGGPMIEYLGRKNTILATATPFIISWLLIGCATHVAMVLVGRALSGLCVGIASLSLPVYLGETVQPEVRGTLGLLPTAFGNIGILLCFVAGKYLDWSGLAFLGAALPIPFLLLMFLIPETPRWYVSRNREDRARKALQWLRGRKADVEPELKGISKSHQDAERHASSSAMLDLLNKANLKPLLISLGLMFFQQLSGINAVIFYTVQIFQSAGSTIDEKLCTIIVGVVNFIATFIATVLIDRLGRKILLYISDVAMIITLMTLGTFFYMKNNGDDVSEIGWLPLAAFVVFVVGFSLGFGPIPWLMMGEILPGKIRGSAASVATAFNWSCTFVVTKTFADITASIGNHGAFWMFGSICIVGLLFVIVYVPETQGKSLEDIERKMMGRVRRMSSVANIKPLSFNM
# From the text: as §1, §2, §3
# BmTRET1 = target: T3, BmTRET1 (Bombyx mori, UniProt A9ZSY3); experiment: Trehalose uptake in Xenopus oocytes expressing BmTRET1; format: cell-based; settings: 105 mM of trehalose, 3 h
# T3 construct: ORF of either Tret1, DmTret1, AmTret1, AgTret1 or BmTret1 cDNA was amplified with PCR; expressed in transfected cells; host or cells: Xenopus laevis oocytes injected with cRNA
# T3 sequence (A9ZSY3 1-505): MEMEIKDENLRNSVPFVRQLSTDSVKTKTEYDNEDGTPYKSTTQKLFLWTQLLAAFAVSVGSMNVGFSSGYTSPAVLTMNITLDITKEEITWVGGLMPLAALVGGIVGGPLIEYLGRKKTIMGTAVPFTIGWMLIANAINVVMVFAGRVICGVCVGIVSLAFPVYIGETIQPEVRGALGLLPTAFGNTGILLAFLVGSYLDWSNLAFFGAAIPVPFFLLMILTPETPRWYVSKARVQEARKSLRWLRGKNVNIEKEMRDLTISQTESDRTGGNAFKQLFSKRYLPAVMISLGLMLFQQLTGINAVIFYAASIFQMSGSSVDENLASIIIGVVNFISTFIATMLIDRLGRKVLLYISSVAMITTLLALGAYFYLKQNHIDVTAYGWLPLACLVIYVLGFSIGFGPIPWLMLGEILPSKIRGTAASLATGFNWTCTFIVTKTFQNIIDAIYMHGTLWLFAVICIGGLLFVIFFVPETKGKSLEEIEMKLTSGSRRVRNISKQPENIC
# From the text: as §1, §2, §3
# [1] = Degradation of trehalose in extracts of mammalian cells; format: in vitro ADME; settings: extracts of CHO-K1, HuH-7, NIH3T3 cells, 3 h at 37° C., data not shown
structure (smiles),measurement,setting,value
OC[C@H]1O[C@H](O[C@H]2O[C@H](CO)[C@@H](O)[C@H](O)[C@H]2O)[C@H](O)[C@@H](O)[C@@H]1O [trehalose],trehalose transport activity,DmTRET1,showed trehalose transport activity
same,trehalose transport activity,AgTRET1,showed trehalose transport activity
same,trehalose transport activity,BmTRET1,showed trehalose transport activity
same,degradation of trehalose,[1],No degradation
